Experiments:
AAV8.Xon.Epo = assay: In vivo induction of AAV8.Xon.Epo in C57Bl6 mice; conditions: 24 h after the last LMI070 dose
From the text: To assess the applicability of Xon for liver targeted therapies, AAV8.Xon.Epo and AAV8.Xon.SaCas9 vectors were generated and delivered to C57Bl6 and Ai14 reporter mice, respectively (FIGS. 7A, 7C, 7F).

SF3B3-on switch = assay: Candidate minigene (SF3B3, BENC1, C12orf4, PDXDC2) switch-on luciferase assay in HEK293 cells; assay type: cell-based, Human
Procedure: Cell culture, transfection, and LMI070/RG7800 treatment. Human embryonic kidney (HEK293) cells (obtained from CHOP Research Vector Core stock) were maintained in DMEM media containing 10% Fetal Bovine Serum (FBS), 1% L-Glutamine and 1% penicillin/streptomycin at 37° C. with 5% CO2. Cells were cultured in 24 well plates and transfected at 80-90% confluence using Lipofectamine 2000 transfection reagent, according to the manufacturer’s protocol. For all experiments, 4 hours after plasmid transfection, cells were treated with LMI070 (MedChemExpress, HY-19620, suspended in DMSO) or RG7800 (MedChemExpress, HY-101792A, suspended in H2O) at the indicated concentrations. Cells were tested for mycoplasma by Research Vector Core. None of the cells used in the study were listed in ICLAC database of commonly misidentified cell lines.
In vitro luciferase assays. HEK293 cells were cultured in DMEM (10% FBS (v/v), 1% Pen/ Strep (v/v), and 1% L-glutamine (v/v) in a 24-well plate. At 70%-80% confluence, cells were co-transfected with the Xon.Firefly luciferase cassettes (0.3 µg/well) and a SV40p-Renilla luciferase cassette as transfection control (0.02 µg/well). Four hours after transfections cells were treated either with LMI070 or RG7800 at indicated concentrations. At 24 h after transfection, cells were rinsed with ice-cold PBS and Renilla and Firefly luciferase activities were assessed using the Dual-Luciferase Reporter Assay System (Promega) according to the manufacturer’s instructions. Luminescent readouts were obtained with a Monolight 3010 luminometer (Pharmigen). Relative light units (RLUs) were calculated as the quotient of […] RLUs and results expressed relative to mock treated control cells.
Next, a series of switch-on cassettes were developed from the top 4 LMI070-responsive exons found in the RNA-Seq dataset. […] HEK293 cells were transfected with the candidate cassettes, treated with LMI070, and luciferase activity or eGFP expression determined 24 h later. […]

[1] = test system: Ai14 reporter genomic locus; assay: In vivo AAVPHPeB SF3B3.Xon SaCas9 editing of Ai14 reporter locus in brain; conditions: Ai14 mice, tdTomato expression
From the text: To assess the applicability of Xon for brain targeted therapies, the SF3B3.Xon was packaged into AAVPHPeB vector to control the expression of SaCas9 protein and delivered to transgenic Ai14 reporter mice and BacHD mice (FIGS. 9A, 9C).

Structure (SMILES): CC1(C)CC(Oc2ccc(-c3ccc(-c4cn[nH]c4)cc3O)nn2)CC(C)(C)N1 [LMI070, 5-(1H-Pyrazol-4-yl)-2-(6-((2,2,6,6-tetramethylpiperidin-4-yl)oxy)pyridazin-3-yl)phenol]
- induction of Mouse Epo and hematocrit levels (AAV8.Xon.Epo): Induction of Mouse Epo and hematocrit levels were detected
- luciferase expression of each candidate cassette in response to LMI070 (SF3B3-on switch; SF3B3, BENC1, C12orf4, PDXDC2 cassettes, 24 h): Increased luciferase expression
- luciferase induction of the SF3B3-on switch (SF3B3-on switch; in response to LMI070, relative to DMSO, 24 h): more than 100 fold
- fold-change in luciferase activity in response to LMI070, original intron (SF3B3-on switch; original SF3B3-on construct compared with alternate intron cassettes): > 200 fold
- editing of the Ai14 reporter genomic locus (brain) [1]: only observed on mice treated with LMI070
